No end group written: not given here.
What was measured:
[1] = test system: E. faecium and E. faecalis; conditions: 20 μl of 1 mg/ml bacteriocin on soft agar, overnight, 30° C. vs 45° C.
E. faecium 14-597963* = conditions: E. faecium 14-597963, isolated from blood, Vancomycin-resistant
Method: (§1) Bacterial strains, growth conditions, bacteriocins and antimicrobial assays. All the strains (see below) used in minimal inhibitory concentration (MIC) assays (Varahan et al., 2014, M. Bio. 5:e01726-01714) were grown in BHI medium (Oxoid) at 30° C. without shaking. A collection of E. faecium strains isolated from blood in patients from different European hospitals was received from Department of Medical Microbiology, University Medical Center Utrecht, the Netherlands. […] Synthesized peptides were solubilized to concentrations of 10.0-0.1 mg/ml in 0.1% (vol/vol) trifluoroacetic acid and stored at −20° C. until use. […] Bacteriocin activity was determined by microtiter plate assay as previously described (Holo et al., 1991, J. Bacteriol., 173:3879-3887). The MIC was defined as the minimal bacteriocin concentration that inhibited the growth of the indicator strain by at least 50% (50% of the turbidity of the control culture without bacteriocin) in 200 μl culture. CD Spectroscopy Circular dichroism (CD) spectra were recorded using a Jasco J-810 spectropolarimeter (Jasco International Co) calibrated with D-camphor-10-sulfonate (Icatayama Chemical). All measurements were made using a quartz cuvette (Sterna) with 0.1 cm path length. Samples were scanned five times with a scanning rate of 50 nm/min with a bandwidth of 0.5 nm and response time of 1 s over the wavelength range 190-250 nm. Spectra were recorded at different (30 and 50%) trifluoroethanol (TFE) (Aldridge) concentrations at 25° C. The approximate α-helical content of the protein was estimated from its molar ellipticity at 222 nm (Scholtz et al., 1991, Biopolymers 31:1463-1470). NMR Spectroscopy The experiments were run on a sample containing 1.0 mM EntK1, 50% D3-TFE (99.5% D) (Aldrich), Milli-Q water and 0.2 mM of 4,4-dimethyl-4-silapentane-1-sulfonic acid (DSS) (Larodan). 2D NOESY (Jeener et al., 1979, J. Magn. Reson., 71:4546-4553), 2D TOCSY (Braunschweiler and Ernst, 1983, J. Magn. Reson., 53:521-528), 2D DQCOSY, ^15N-HSQC (Davis et al., 1992, J. Magn. Reson., 98:207-216) and ^13C-HSQC (Hurd, 1991, J. Magn. Reson., 91:648-653) were recorded. The data was acquired on a 600 MHz Bruker Avance II spectrometer with four channels and a 5 mm TCI cryoprobe (Bruker Biospin). NOESY spectra with mixing times between 120 ms and 300 ms were obtained for both samples. TOCSY mixing times of 15-80 ms were used. The experiments were run at 298.15 K. Spectra were processed using the Topspin program (Bruker Biospin). 4,4-dimethyl-4-silapentane-1-sulfonic acid (DSS) was used as a chemical shift standard, and ^15N and ^13C data were referenced using frequency ratios as described in (Wishart et al., 1995, J. Biomol. NMR., 6:135-140). For visualization, assignment and integration of the spectra the computer program CARA was used (Keller, 2004, The Computer Aided Resonance Assignment Tutorial. CANTINA Verlag, Goldau, Switzerland). The spectra were assigned using standard methods. Dihedral angle restraints were obtained from the chemical shift values using the program TALOS-N(Shen and Bax, 2013, J. Biomol. NMR, 56:227-241). Nuclear Overhauser effect (NOE) distance restraints were calculated from the peak volumes in the NOESY spectra with NOESY mixing time of 200 ms. All structure calculations were made using the structure calculation program CYANA 2.1 (Guntert et al., 1997, J. Mol. Biol., 273:283-298; Herrmann et al., 2002, J. Mol. Biol., 319:209-227). The annealing macro in CYANA calculated 100 structures. The 20 structures with the lowest energy were kept and analyzed further. The root-mean-square deviation (RMSD) was calculated and the structures were visualized using MolMol (Koradi et al., 1996, J. Mol. Graph., 14:51-55, 29-32). Generation of bacteriocin resistant mutants of E. faecalis and E. faecium.

E. faecium LMGT 3313 = test system: E. faecium LMGT 3313
Method: as §1

B. cercus LMGT 2711 = test system: B. cercus LMGT 2711
Method: as §1

[2] = test system: E. faecium LMGT2787 resistant mutants; conditions: only HR type found
Method: as §1

S. aureus LMGT 3258 = test system: S. aureus LMGT 3258
Method: as §1

E. faecium 928379 A* = conditions: isolated from blood, Vancomycin-resistant
Method: as §1

E. faecium PO1402593* = conditions: E. faecium PO1402593, isolated from blood, Vancomycin-resistant
Method: as §1

[3] = test system: Bacillus cereus LMGT 2805
Method: as §1

E. faecium LMGT 2787 = test system: E. faecium LMGT 2787
Method: as §1

S. aureus LMGT 3260 = test system: S. aureus LMGT 3260
Method: as §1

E. faecium 602589 = conditions: E. faecium 602589, isolated from blood
Method: as §1

E. faecalis LMGT 3572 = test system: E. faecalis LMGT 3572
Method: as §1

E. faecium UW6920 = conditions: E. faecium UW6920, isolated from blood
Method: as §1

E. hirae LMGT 3236 = test system: E. hirae LMGT 3236
Method: as §1

E. faecium P032 inv-4 = conditions: E. faecium P032 inv-4, isolated from blood
Method: as §1

E. faecium A11 EFH2/00 = conditions: E. faecium A11 EFH2/00, isolated from blood
Method: as §1

B. cereus LMGT 3025 = test system: B. cereus LMGT 3025
Method: as §1

E. faecium P040 INV-25 = conditions: E. faecium P040 INV-25, isolated from blood
Method: as §1

MKFKFNPTGTIVKKLTQYEIAWFKNKHGYYPWEIPRC [EntK1]
only appeared at 30 °C but not at 45 °C: appearance of resistant mutants at growth temperature [1]
0.02 µM: MIC 50 (E. faecium 928379 A*) | MIC 50 (E. faecium PO1402593*) | MIC 50 (E. faecium LMGT 2787) | MIC 50 (E. faecium P032 inv-4) | MIC 50 (E. faecium P040 INV-25)
2.75 µM: MIC 50 (B. cercus LMGT 2711)
0.045 µM: MIC 50 (E. faecium 14-597963*) | MIC 50 (E. faecium 602589) | MIC 50 (E. faecium UW6920) | MIC 50 (E. hirae LMGT 3236) | MIC 50 (E. faecium A11 EFH2/00)
>5.5 µM: MIC 50 (S. aureus LMGT 3258) | MIC 50 [3] | MIC 50 (S. aureus LMGT 3260) | MIC 50 (E. faecalis LMGT 3572) | MIC 50 (B. cereus LMGT 3025)
0.085 µM: MIC 50 (E. faecium LMGT 3313)
500 times: resistance of HR type mutants compared to the WT [2]

MKTILRFVAGYDIASHKKKTGGYPWERGKA [LsbB, reference compound]
>7 µM: MIC 50 (E. faecium LMGT 3313) | MIC 50 (B. cercus LMGT 2711) | MIC 50 (S. aureus LMGT 3258) | MIC 50 [3] | MIC 50 (E. faecium LMGT 2787) | MIC 50 (S. aureus LMGT 3260) | MIC 50 (E. faecalis LMGT 3572) | MIC 50 (E. hirae LMGT 3236) | MIC 50 (B. cereus LMGT 3025)

MLAKIKAMIKKFPNPYTLAAKLTTYEINWYKQQYGRYPWERPVA [EntEJ97]
0.145 µM: MIC 50 (E. faecium 14-597963*) | MIC 50 (E. faecium LMGT 3313) | MIC 50 (E. faecium LMGT 2787) | MIC 50 (E. faecium 602589) | MIC 50 (E. faecalis LMGT 3572) | MIC 50 (E. faecium UW6920)
2.3 µM: MIC 50 (S. aureus LMGT 3260) | MIC 50 (B. cereus LMGT 3025)
0.037 µM: MIC 50 (E. faecium P032 inv-4)
0.075 µM: MIC 50 (E. faecium 928379 A*) | MIC 50 (E. faecium PO1402593*) | MIC 50 (E. hirae LMGT 3236) | MIC 50 (E. faecium A11 EFH2/00) | MIC 50 (E. faecium P040 INV-25)
only appeared at 30 °C but not at 45 °C: appearance of resistant mutants at growth temperature [1]
>4.7 µM: MIC 50 (B. cercus LMGT 2711) | MIC 50 (S. aureus LMGT 3258) | MIC 50 [3]
500 times: resistance of HR type mutants compared to the WT [2]

— patent US11648289B2, “Antibacterial method” (priority 2016, dated 2023)
